Experimental data published in patent US9375519B2, “Bioerodable poly(etheresteramides) and medical article uses” (SurModics, Inc., priority 2012, dated 2016).
Entries after “also recorded” stand apart in the source; their conditions may differ. Structures can show the parent of a compound that is named as a salt.

Assay: Analysis of monomer degradation in deuterated water by NMR (free phenylalanine)
Format: physicochemical
Details: deuterated water at pH 4, 7 or 11, room temperature
Procedure: Monomers of formula II were evaluated for degradation in water at basic, neutral, and acidic pH conditions.
NMR indicated an increasing presence of free phenylalanine, a degradation byproduct, in solution over time (FIG. 1). […] This is consistent with hydrolysis of the ester bond in the Phe-TEG monomer.
Monomers were placed in deuterated water (adjusted to pH 4, 7, or 11 with DCl or NaOD) in an NMR tube and incubated at room temperature. NMR was used to detect the presence of free phenylalanine, a degradation byproduct, in the aqueous phase (see FIG. 1).

NC(Cc1ccccc1)C(=O)OCCOCCOCCOCCOC(=O)C(N)Cc1ccccc1 (stereo not shown) [Phe-TEG, di-p-toluenesulfonic salt of bis-(phenylalanine)-tetraethylene glycol diester]
degradation of monomer in water (free phenylalanine in solution over time by NMR): showed evidence of degradation; also recorded: larger under basic conditions than neutral or acidic
